Assay results from ChEMBL document CHEMBL4382216, “Asymmetric synthesis and biological evaluation of imidazole- and oxazole-containing synthetic lipoxin A4 mimetics (sLXms)” (Eur J Med Chem, 2019).
Active and inactive are the calls of the source. The rule behind the calls is not given here.

Key:
[1] = target: T1, N-formyl peptide receptor 2 (Homo sapiens) (UniProt P25090); assay: Agonist activity at ALX/FPR2 in human THP1 cells harboring NF-kB-Luc assessed as inhibition of LPS-induced NFkB signalling activation by measuring NF-kB activation level at 10^-6 M pretreated for 30 mins followed by LPS stimulation for 24 hrs by luciferase reporter gene assay; format: cell-based; design: scale not given: the % may be the effect or the level left
T1 sequence (whole entry): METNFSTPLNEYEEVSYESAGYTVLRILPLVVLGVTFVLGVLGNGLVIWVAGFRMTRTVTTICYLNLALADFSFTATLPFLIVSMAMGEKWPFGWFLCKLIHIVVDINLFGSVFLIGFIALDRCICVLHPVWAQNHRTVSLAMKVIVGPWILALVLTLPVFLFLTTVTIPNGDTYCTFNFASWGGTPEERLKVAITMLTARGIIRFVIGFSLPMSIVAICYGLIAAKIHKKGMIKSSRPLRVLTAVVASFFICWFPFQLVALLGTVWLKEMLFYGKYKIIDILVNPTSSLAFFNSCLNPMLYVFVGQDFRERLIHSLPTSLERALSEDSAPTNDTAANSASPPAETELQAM

Homo sapiens [2] = species: Homo sapiens; assay: Activation of Luc-fused NFkB (unknown origin) expressed in non-stimulated human THP1 cells assessed as relative luminescence unit at 10^-6 M after 24 hrs by luciferase reporter gene assay (reference value: 100%); format: cell-based
[3] = target: T1, N-formyl peptide receptor 2 (Homo sapiens); assay: Agonist activity at ALX/FPR2 in human THP1 cells harboring NF-kB-Luc assessed as inhibition of LPS-induced NFkB signalling activation by measuring IL-1beta secretion at 10^-6 M pretreated for 30 mins followed by LPS stimulation for 24 hrs by electrochemiluminescence assay (reference value: 100%); format: cell-based; design: scale not given: the % may be the effect or the level left
[4] = target: T1, N-formyl peptide receptor 2 (Homo sapiens); assay: Agonist activity at ALX/FPR2 in human THP1 cells harboring NF-kB-Luc assessed as inhibition of LPS-induced NFkB signalling activation by measuring IL-6 secretion at 10^-6 M pretreated for 30 mins followed by LPS stimulation for 24 hrs by electrochemiluminescence assay (reference value: 100%); format: cell-based; design: scale not given: the % may be the effect or the level left
[5] = target: T1, N-formyl peptide receptor 2 (Homo sapiens); assay: Agonist activity at ALX/FPR2 in human THP1 cells harboring NF-kB-Luc assessed as inhibition of LPS-induced NFkB signalling activation by measuring IL-12p70 secretion at 10^-6 M pretreated for 30 mins followed by LPS stimulation for 24 hrs by electrochemiluminescence assay (reference value: 100%); format: cell-based; design: scale not given: the % may be the effect or the level left
[6] = target: T1, N-formyl peptide receptor 2 (Homo sapiens); assay: Agonist activity at ALX/FPR2 in human THP1 cells harboring NF-kB-Luc assessed as inhibition of LPS-induced NFkB signalling activation by measuring IFNgamma secretion at 10^-6 M pretreated for 30 mins followed by LPS stimulation for 24 hrs by electrochemiluminescence assay (reference value: 100%); format: cell-based; design: scale not given: the % may be the effect or the level left
[7] = target: T1, N-formyl peptide receptor 2 (Homo sapiens); assay: Agonist activity at ALX/FPR2 in human THP1 cells harboring NF-kB-Luc assessed as inhibition of LPS-induced NFkB signalling activation by measuring TNFalpha secretion at 10^-6 M pretreated for 30 mins followed by LPS stimulation for 24 hrs by electrochemiluminescence assay (reference value: 100%); format: cell-based; design: scale not given: the % may be the effect or the level left
THP-1 [8] = assay: Cytotoxicity against human THP1 cells harboring NFkB-Luc assessed as LDH release at 10'6 M after 24 hrs by spectrophotometric method relative to control; format: cell-based; settings: thp-1, 24 h
Mus musculus [9] = assay: (§1) Anti-inflammatory activity in zymosan-induced C57BL/6J mouse peritonitis model assessed as total cell count in peritoneal cavity at 25 ug, ip pretreated for 1 hr followed by zymosan treatment and redosing of test compound at 1 hr post zymosan addition and measured 4 hrs post zymosan addition by flow cytometry (reference value: 100%); format: functional
Mus musculus [10] = assay: as §1, with “PMN leukocytes level” for “total cell count”; format: functional
Homo sapiens [11] = species: Homo sapiens; assay: Activation of Luc-fused NFkB (unknown origin) expressed in non-stimulated human THP1 cells assessed as relative luminescence unit at 10^-12 M after 24 hrs by luciferase reporter gene assay (reference value: 100%); format: cell-based
Homo sapiens [12] = species: Homo sapiens; assay: Activation of Luc-fused NFkB (unknown origin) expressed in non-stimulated human THP1 cells assessed as relative luminescence unit at 10^-11 M after 24 hrs by luciferase reporter gene assay (reference value: 100%); format: cell-based
Homo sapiens [13] = species: Homo sapiens; assay: Activation of Luc-fused NFkB (unknown origin) expressed in non-stimulated human THP1 cells assessed as relative luminescence unit at 10^-10 M after 24 hrs by luciferase reporter gene assay (reference value: 100%); format: cell-based
Homo sapiens [14] = species: Homo sapiens; assay: Activation of Luc-fused NFkB (unknown origin) expressed in non-stimulated human THP1 cells assessed as relative luminescence unit at 10^-9 M after 24 hrs by luciferase reporter gene assay (reference value: 100%); format: cell-based
Homo sapiens [15] = species: Homo sapiens; assay: Activation of Luc-fused NFkB (unknown origin) expressed in non-stimulated human THP1 cells assessed as relative luminescence unit at 10^-8 M after 24 hrs by luciferase reporter gene assay (reference value: 100%); format: cell-based
Homo sapiens [16] = species: Homo sapiens; assay: Activation of Luc-fused NFkB (unknown origin) expressed in non-stimulated human THP1 cells assessed as relative luminescence unit at 10^-7 M after 24 hrs by luciferase reporter gene assay (reference value: 100%); format: cell-based
[17] = target: T2, N-formyl peptide receptor 2 (Homo sapiens, UniProt P25090); assay: Agonist activity at ALX/FPR2 in human THP1 cells harboring NF-kB-Luc assessed as inhibition of LPS-induced NFkB signalling activation pretreated for 30 mins followed by LPS stimulation for 24 hrs by luciferase reporter gene assay; format: cell-based
T2 sequence (P25090 whole entry): T1 sequence (whole entry)

[18] = target: T2, N-formyl peptide receptor 2; assay: Agonist activity at ALX/FPR2 in human THP1 cells harboring NF-kB-Luc assessed as inhibition of LPS-induced NFkB signalling activation by measuring reduction in IFNgamma secretion pretreated for 30 mins followed by LPS stimulation for 24 hrs by electrochemiluminescence assay; format: cell-based; settings: read-out: IC50
[19] = target: T2, N-formyl peptide receptor 2; assay: Agonist activity at ALX/FPR2 in human THP1 cells harboring NF-kB-Luc assessed as inhibition of LPS-induced NFkB signalling activation by measuring reduction in IL-12p70 secretion pretreated for 30 mins followed by LPS stimulation for 24 hrs by electrochemiluminescence assay; format: cell-based; settings: read-out: IC50
[20] = target: T2, N-formyl peptide receptor 2; assay: Agonist activity at ALX/FPR2 in human THP1 cells harboring NF-kB-Luc assessed as inhibition of LPS-induced NFkB signalling activation by measuring reduction in TNFalpha secretion pretreated for 30 mins followed by LPS stimulation for 24 hrs by electrochemiluminescence assay; format: cell-based; settings: read-out: IC50
[21] = target: T2, N-formyl peptide receptor 2; assay: Agonist activity at ALX/FPR2 in human THP1 cells harboring NF-kB-Luc assessed as inhibition of LPS-induced NFkB signalling activation by measuring reduction in IL-1beta secretion pretreated for 30 mins followed by LPS stimulation for 24 hrs by electrochemiluminescence assay; format: cell-based
[22] = target: T2, N-formyl peptide receptor 2; assay: Agonist activity at ALX/FPR2 in human THP1 cells harboring NF-kB-Luc assessed as inhibition of LPS-induced NFkB signalling activation by measuring reduction in IL-6 secretion pretreated for 30 mins followed by LPS stimulation for 24 hrs by electrochemiluminescence assay; format: cell-based; settings: read-out: IC50
THP-1 [23] = assay: Cytotoxicity against human THP1 cells harboring NFkB-Luc assessed as LDH release at 10'12 M after 24 hrs by spectrophotometric method relative to control; format: cell-based; settings: thp-1, 24 h
THP-1 [24] = assay: Cytotoxicity against human THP1 cells harboring NFkB-Luc assessed as LDH release at 10'11 M after 24 hrs by spectrophotometric method relative to control; format: cell-based; settings: thp-1, 24 h
THP-1 [25] = assay: Cytotoxicity against human THP1 cells harboring NFkB-Luc assessed as LDH release at 10'10 M after 24 hrs by spectrophotometric method relative to control; format: cell-based; settings: thp-1, 24 h
THP-1 [26] = assay: Cytotoxicity against human THP1 cells harboring NFkB-Luc assessed as LDH release at 10'9 M after 24 hrs by spectrophotometric method relative to control; format: cell-based; settings: thp-1, 24 h
THP-1 [27] = assay: Cytotoxicity against human THP1 cells harboring NFkB-Luc assessed as LDH release at 10'8 M after 24 hrs by spectrophotometric method relative to control; format: cell-based; settings: thp-1, 24 h
THP-1 [28] = assay: Cytotoxicity against human THP1 cells harboring NFkB-Luc assessed as LDH release at 10'7 M after 24 hrs by spectrophotometric method relative to control; format: cell-based; settings: thp-1, 24 h
HEK293 = assay: Induction of intracellular calcium accumulation in HEK293 cells at 0.01 nM to 100 nM by Fluo-4 dye based fluorescence spectrophotometric assay; format: functional, cell-based; settings: Homo sapiens
Mus musculus [29] = assay: as §1, with “at 50 ng,” for “at 25 ug,”, “for 30 mins” for “for 1 hr”; format: functional
Mus musculus [30] = assay: as §1, with “at 150 ng,” for “at 25 ug,”, “for 30 mins” for “for 1 hr”; format: functional
Mus musculus [31] = assay: as §1, with “as PMN leukocytes level” for “as total cell count”, “at 50 ng,” for “at 25 ug,”, “for 30 mins” for “for 1 hr”; format: functional
Mus musculus [32] = assay: as §1, with “as PMN leukocytes level” for “as total cell count”, “at 150 ng,” for “at 25 ug,”, “for 30 mins” for “for 1 hr”; format: functional

In the case of `C[C@@H]1C[C@H]2[C@@H]3CCC4=CC(=O)C=C[C@]4(C)[C@@]3(F)[C@@H](O)C[C@]2(C)[C@@]1(O)C(=O)CO` [DEXAMETHASONE], the Activity [1] is reported as 53.2%, the Activity (Homo sapiens [2]) is reported as 1.6% and the Activity [3] is reported as 13.6%. The Activity [4] was 1.5%, the Activity [5] was 62.6% and the Activity [6] was 45.1%. For the same molecule, the Activity [7] was 58.1%, the “fold change (FC)” value (THP-1 [8]) was 1.3 and the Emax (Mus musculus [9]) was 46.7%. It also gave an Emax (Mus musculus [10]) of 51.5%.
`CCCCC[C@@H](O)c1c(/C=C/[C@@H](O)[C@@H](O)CCCC(=O)OC)nc(C)n1C` showed an Activity (Homo sapiens [11]) of 2%, an Activity (Homo sapiens [12]) of 2.1% and an Activity (Homo sapiens [13]) of 2.3%. It also gave an Activity (Homo sapiens [14]) of 2.1%, an Activity (Homo sapiens [15]) of 2.1% and an Activity (Homo sapiens [16]) of 2.5%. It also gave an Activity (Homo sapiens [2]) of 2%, an IC50 [17] of 1 nM and an IC50 [18] of 4.4 nM. The IC50 [19] was 5.1 nM, the IC50 [20] was 5.6 nM and the IC50 [21] was “Not Active”. The IC50 [22] was 76.6 nM, the “fold change (FC)” value (THP-1 [23]) was 1 and the “fold change (FC)” value (THP-1 [24]) was 0.9. For the same molecule, the “fold change (FC)” value (THP-1 [25]) was 0.9, the “fold change (FC)” value (THP-1 [26]) was 0.8 and the “fold change (FC)” value (THP-1 [27]) was 0.9. The “fold change (FC)” value (THP-1 [28]) was 0.9, the “fold change (FC)” value (THP-1 [8]) was 1.1 and the Activity (HEK293) was “inactive”. It also gave an Emax (Mus musculus [29]) of 57.9%, an Emax (Mus musculus [30]) of 30.4% and an Emax (Mus musculus [31]) of 51.6%. For the same molecule, the Emax (Mus musculus [32]) was 32.5%.
